# Results published in ChEMBL document CHEMBL1150850, “Cytotoxic principles from Ventilago leiocarpa” (J Nat Prod, 2001).
# Tests used:
# HeLa [1] = assay: Growth inhibition of human HeLa cells assessed as [3H]thymidine incorporation at 50 uM after 3 days by scintillation counting; type: functional; conditions: read-out: GI
# WISH [2] = assay: Growth inhibition of human WISH cells assessed as [3H]thymidine incorporation at 12.5 uM after 3 days by scintillation counting; type: functional; conditions: read-out: GI
# K562 [3] = assay: Growth inhibition of human K562 cells assessed as [3H]thymidine incorporation at 25 uM after 3 days by scintillation counting; type: functional; conditions: read-out: GI
# [4] = Growth inhibition of african green monkey Vero cells assessed as [3H]thymidine incorporation at 25 uM after 3 days by scintillation counting; type: cell-based; conditions: chlorocebus sabaeus, read-out: GI
# Vero [5] = assay: Growth inhibition of african green monkey Vero cells assessed as [3H]thymidine incorporation at 12.5 uM after 3 days by scintillation counting; type: cell-based; conditions: chlorocebus sabaeus, 72 h
# HeLa [6] = assay: Growth inhibition of human HeLa cells assessed as [3H]thymidine incorporation at 25 uM after 3 days by scintillation counting; type: functional; conditions: read-out: GI
# Raji [7] = assay: Growth inhibition of human Raji cells assessed as [3H]thymidine incorporation at 25 uM after 3 days by scintillation counting; type: functional; conditions: read-out: GI
# K562 [8] = assay: Growth inhibition of human K562 cells assessed as [3H]thymidine incorporation at 3.125 uM after 3 days by scintillation counting; type: functional; conditions: read-out: GI
# Calu-1 [9] = assay: Growth inhibition of human Calu1 cells assessed as [3H]thymidine incorporation at 50 uM after 3 days by scintillation counting; type: functional; conditions: read-out: GI
# HeLa [10] = assay: Inhibition of human HeLa cell proliferation assessed as [3H]thymidine incorporation after 3 days by scintillation counting; type: functional, cell-based
# WISH [11] = assay: Growth inhibition of human WISH cells assessed as [3H]thymidine incorporation at 6.25 uM after 3 days by scintillation counting; type: functional; conditions: read-out: GI
# Calu-1 [12] = assay: Growth inhibition of human Calu1 cells assessed as [3H]thymidine incorporation at 3.125 uM after 3 days by scintillation counting; type: functional; conditions: read-out: GI
# HeLa [13] = assay: Growth inhibition of human HeLa cells assessed as [3H]thymidine incorporation at 12.5 uM after 3 days by scintillation counting; type: functional; conditions: read-out: GI
# Raji [14] = assay: Growth inhibition of human Raji cells assessed as [3H]thymidine incorporation at 6.25 uM after 3 days by scintillation counting; type: functional; conditions: read-out: GI
# K562 [15] = assay: Growth inhibition of human K562 cells assessed as [3H]thymidine incorporation at 12.5 uM after 3 days by scintillation counting; type: functional; conditions: read-out: GI
# WISH [16] = assay: Growth inhibition of human WISH cells assessed as [3H]thymidine incorporation at 25 uM after 3 days by scintillation counting; type: functional; conditions: read-out: GI
# WISH [17] = assay: Inhibition of human WISH cell proliferation assessed as [3H]thymidine incorporation after 3 days by scintillation counting; type: functional, cell-based
# WISH [18] = assay: Growth inhibition of human WISH cells assessed as [3H]thymidine incorporation at 50 uM after 3 days by scintillation counting; type: functional; conditions: read-out: GI
# Calu-1 [19] = assay: Growth inhibition of human Calu1 cells assessed as [3H]thymidine incorporation at 25 uM after 3 days by scintillation counting; type: functional; conditions: read-out: GI
# Raji [20] = assay: Inhibition of human Raji cell proliferation assessed as [3H]thymidine incorporation after 3 days by scintillation counting; type: functional, cell-based
# WISH [21] = assay: Growth inhibition of human WISH cells assessed as [3H]thymidine incorporation at 3.125 uM after 3 days by scintillation counting; type: functional; conditions: read-out: GI
# Raji [22] = assay: Growth inhibition of human Raji cells assessed as [3H]thymidine incorporation at 50 uM after 3 days by scintillation counting; type: functional; conditions: read-out: GI
# K562 [23] = assay: Inhibition of human K562 cell proliferation assessed as [3H]thymidine incorporation after 3 days by scintillation counting; type: functional, cell-based
# [24] = Growth inhibition of african green monkey Vero cells assessed as [3H]thymidine incorporation at 50 uM after 3 days by scintillation counting; type: cell-based; conditions: chlorocebus sabaeus, read-out: GI
# Vero [25] = assay: Inhibition of african green monkey Vero cell proliferation assessed as [3H]thymidine incorporation after 3 days by scintillation counting; type: cell-based; conditions: Chlorocebus sabaeus
# Raji [26] = assay: Growth inhibition of human Raji cells assessed as [3H]thymidine incorporation at 3.125 uM after 3 days by scintillation counting; type: functional; conditions: read-out: GI
# HeLa [27] = assay: Growth inhibition of human HeLa cells assessed as [3H]thymidine incorporation at 3.125 uM after 3 days by scintillation counting; type: functional; conditions: read-out: GI
# K562 [28] = assay: Growth inhibition of human K562 cells assessed as [3H]thymidine incorporation at 6.25 uM after 3 days by scintillation counting; type: functional; conditions: read-out: GI
# Calu-1 [29] = assay: Growth inhibition of human Calu1 cells assessed as [3H]thymidine incorporation at 6.25 uM after 3 days by scintillation counting; type: functional; conditions: read-out: GI
# HeLa [30] = assay: Growth inhibition of human HeLa cells assessed as [3H]thymidine incorporation at 6.25 uM after 3 days by scintillation counting; type: functional; conditions: read-out: GI
# Calu-1 [31] = assay: Growth inhibition of human Calu1 cells assessed as [3H]thymidine incorporation at 12.5 uM after 3 days by scintillation counting; type: functional; conditions: read-out: GI
# [32] = Growth inhibition of african green monkey Vero cells assessed as [3H]thymidine incorporation at 3.125 uM after 3 days by scintillation counting; type: cell-based; conditions: chlorocebus sabaeus, read-out: GI
# Calu-1 [33] = assay: Inhibition of human Calu1 cell proliferation assessed as [3H]thymidine incorporation after 3 days by scintillation counting; type: functional, cell-based
# [34] = Growth inhibition of african green monkey Vero cells assessed as [3H]thymidine incorporation at 6.25 uM after 3 days by scintillation counting; type: cell-based; conditions: chlorocebus sabaeus, read-out: GI
# K562 [35] = assay: Growth inhibition of human K562 cells assessed as [3H]thymidine incorporation at 50 uM after 3 days by scintillation counting; type: functional; conditions: read-out: GI
# Raji [36] = assay: Growth inhibition of human Raji cells assessed as [3H]thymidine incorporation at 12.5 uM after 3 days by scintillation counting; type: functional; conditions: read-out: GI
smiles,measurement,setting,value
Cc1cc(O)c2c(c1)C(=O)c1c(c(O)cc(O)c1-c1c(O)cc(O)c3c1C(=O)c1cc(C)cc(O)c1C3=O)C2=O [SKYRIN],inhibition of growth at 50 µM,HeLa [1],100%
same,inhibition of growth at 12.5 µM,WISH [2],37.8%
same,inhibition of growth at 25 µM,K562 [3],50.6%
same,"inhibition at 72 h, 25 µM",[4],70.5%
same,growth inhibition (GI),Vero [5],34.8%
same,inhibition of growth at 25 µM,HeLa [6],100%
same,inhibition of growth at 25 µM,Raji [7],82.1%
same,inhibition of growth at 3.125 µM,K562 [8],29.7%
same,inhibition of growth at 50 µM,Calu-1 [9],100%
same,IC50,HeLa [10],11.3 µM
same,inhibition of growth at 6.25 µM,WISH [11],23.4%
same,inhibition of growth at 3.125 µM,Calu-1 [12],14.3%
same,inhibition of growth at 12.5 µM,HeLa [13],55%
same,inhibition of growth at 6.25 µM,Raji [14],36.8%
same,inhibition of growth at 12.5 µM,K562 [15],33.5%
same,inhibition of growth at 25 µM,WISH [16],60%
same,IC50,WISH [17],21.3 µM
same,inhibition of growth at 50 µM,WISH [18],100%
same,inhibition of growth at 25 µM,Calu-1 [19],100%
same,IC50,Raji [20],12.3 µM
same,inhibition of growth at 3.125 µM,WISH [21],24.7%
same,inhibition of growth at 50 µM,Raji [22],100%
same,IC50,K562 [23],27.3 µM
same,"inhibition at 72 h, 50 µM",[24],100%
same,IC50,Vero [25],18.3 µM
same,inhibition of growth at 3.125 µM,Raji [26],33.8%
same,inhibition of growth at 3.125 µM,HeLa [27],5.8%
same,inhibition of growth at 6.25 µM,K562 [28],22.2%
same,inhibition of growth at 6.25 µM,Calu-1 [29],20.6%
same,inhibition of growth at 6.25 µM,HeLa [30],27%
same,inhibition of growth at 12.5 µM,Calu-1 [31],24.9%
same,"inhibition at 72 h, 3.125 µM",[32],19.9%
same,IC50,Calu-1 [33],15.5 µM
same,"inhibition at 72 h, 6.25 µM",[34],23.1%
same,inhibition of growth at 50 µM,K562 [35],100%
same,inhibition of growth at 12.5 µM,Raji [36],48.1%
